≈ marks a conversion by molar mass, not a printed value.
Tests used:
[1] = test system: super sensitive Gram-negative Escherichia coli (E. coli) BAS849; test: Antibacterial activity, microbroth dilution MIC, E. coli BAS849; format: cell-based; conditions: Escherichia coli; E. coli BAS849, microbroth dilution; read-out: MIC, BAS849
[2] = test system: control Gram-negative E. coli 25922 strain; test: Antibacterial activity, microbroth dilution MIC, E. coli 25922; format: cell-based, Escherichia coli; conditions: Escherichia coli; E. coli 25922, microbroth dilution; read-out: MIC, 25922
[3] = test system: Gram-positive Staphylococcus aureus (S. aureus) 29213; test: Antibacterial activity, microbroth dilution MIC, S. aureus 29213; format: cell-based; conditions: Staphylococcus aureus; S. aureus 29213, microbroth dilution; read-out: MIC, 29213
[4] = test system: quinolone resistant E. coli LZ3111; test: Antibacterial activity, MIC, quinolone resistant E. coli LZ3111; format: cell-based, Escherichia coli; conditions: Escherichia coli, read-out: MIC, LZ3111
Description: (§1) The antibacterial activity from a microbroth dilution method may be presented as the minimum inhibitory concentration (MIC in […]). The MIC value is the lowest concentration of a drug which prevents macroscopically visible bacterial growth under test conditions.
Mutations in these regions are known to confer a high level resistance to the quinolone class of antibiotics.

[5] = test system: E. coli ELZ4000 (MDR clinical isolate); test: Antibacterial activity, MIC, MDR E. coli ELZ4000; format: cell-based, Escherichia coli; conditions: Escherichia coli; E. coli ELZ4000, MDR clinical isolate; read-out: MIC ELZ4000
[6] = test system: E. coli ELZ4251 (MDR clinical isolate); test: Antibacterial activity, MIC, MDR E. coli ELZ4251; format: cell-based, Escherichia coli; conditions: Escherichia coli, E. coli ELZ4251, MDR clinical isolate; read-out: MIC ELZ4251
[7] = test system: Acinetobacter baumannii (A. baumannii) BAA747; test: Antibacterial activity, MIC, A. baumannii BAA747; format: cell-based; conditions: Acinetobacter baumannii; A. baumannii BAA747; read-out: MIC BAA747
[8] = test system: Klebsiella pneumoniae (K. pneumoniae) 35657; test: Antibacterial activity, MIC, K. pneumoniae 35657; format: cell-based; conditions: Klebsiella pneumoniae
[9] = test system: resistant A. baumannii MXX2240 (MDR clinical isolate); test: Antibacterial activity, MIC, resistant A. baumannii MXX2240; format: cell-based, Acinetobacter baumannii; conditions: Acinetobacter baumannii, resistant A. baumannii MMX2240, MDR clinical isolate; read-out: MIC MMX2240
[10] = test system: resistant K. pneumoniae MXX1232 (MDR clinical isolate); test: Antibacterial activity, MIC, resistant K. pneumoniae MXX1232; format: cell-based, Klebsiella pneumoniae; conditions: Klebsiella pneumoniae; resistant K. pneumoniae MMX1232, MDR clinical isolate; read-out: MIC MMX1232
[11] = test system: Pseudomonas aeruginosa (P. aeruginosa) 27853; test: Antibacterial activity, MIC, P. aeruginosa 27853; format: cell-based; conditions: Pseudomonas aeruginosa, P. aeruginosa 27853; read-out: MIC 27853
Description: as §1
Antibacterial activity of test compounds against the Gram-negative bacterium Pseudomonas aeruginosa (P. aeruginosa) 27853 is shown in Table 5.

[12] = test system: Haemophilus influenzae (H. influenzae) 49247; test: Antibacterial activity, MIC, H. influenzae 49247; format: cell-based; conditions: Haemophilus influenzae; H. influenzae 49247; read-out: MIC 49247
Method in brief: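 A microbroth dilution method gave the minimum inhibitory concentration for each compound against H. influenzae 49247, a Gram-negative bacterium. MIC means the smallest concentration of drug at which no macroscopically visible bacterial growth appears under the conditions of the test.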

[13] = test system: Moraxella catarrhalis (M. catarrhalis) 25238; test: Antibacterial activity, MIC, M. catarrhalis 25238; format: cell-based; conditions: Moraxella catarrhalis, M. catarrhalis 25238; read-out: MIC 25238
[14] = test system: Neisseria meningitidis (N. meningitidis) 13090; test: Antibacterial activity, MIC, N. meningitidis 13090; format: cell-based; conditions: Neisseria meningitidis; N. meningitidis 13090; read-out: MIC 13090

Structure (SMILES)	MIC [1]	MIC [2]	MIC [3]	MIC [4]	MIC [5]	MIC [6]	MIC [7]	MIC [8]	MIC [9]	MIC [10]	MIC [11]	MIC [12]	MIC [13]	MIC [14]
Cc1c(-c2ccc(N(C)C)cc2)[nH]c(=O)c(C(=O)O)c1O [Cpd 5, 6-[4-(dimethylamino)phenyl]-4-hydroxy-5-methyl-2-oxo-1,2-dihydropyridine-3-carboxylic acid]	< 1 µg/mL	12.5 to 150 µg/mL (≈ 43.4 to 520 µM)	12.5 to 150 µg/mL (≈ 43.4 to 520 µM)	1 to 3.5 µg/mL (≈ 3.47 to 12.1 µM)	3.5 to 12.5 µg/mL (≈ 12.1 to 43.4 µM)	1 to 3.5 µg/mL (≈ 3.47 to 12.1 µM)	3.5 to 12.5 µg/mL (≈ 12.1 to 43.4 µM)	12.5 to 150 µg/mL (≈ 43.4 to 520 µM)	< 1 µg/mL	12.5 to 150 µg/mL (≈ 43.4 to 520 µM)	12.5 to 150 µg/mL (≈ 43.4 to 520 µM)	1 to 3.5 µg/mL (≈ 3.47 to 12.1 µM)	1 to 3.5 µg/mL (≈ 3.47 to 12.1 µM)	< 1 µg/mL
CCc1cc(C(=O)O)c(=O)[nH]c1-c1ccc(N(C)C)nc1 [Cpd 86, 6-[6-(dimethylamino)pyridin-3-yl]-5-ethyl-2-oxo-1,2-dihydropyridine-3-carboxylic acid]	1 to 3.5 µg/mL (≈ 3.48 to 12.2 µM)	12.5 to 150 µg/mL (≈ 43.5 to 522 µM)	12.5 to 150 µg/mL (≈ 43.5 to 522 µM)	12.5 to 150 µg/mL (≈ 43.5 to 522 µM)			12.5 to 150 µg/mL (≈ 43.5 to 522 µM)	12.5 to 150 µg/mL (≈ 43.5 to 522 µM)	12.5 to 150 µg/mL (≈ 43.5 to 522 µM)	12.5 to 150 µg/mL (≈ 43.5 to 522 µM)	12.5 to 150 µg/mL (≈ 43.5 to 522 µM)	< 1 µg/mL	1 to 3.5 µg/mL (≈ 3.48 to 12.2 µM)	< 1 µg/mL
CCc1c(-c2ccc(N(C)C)nc2)[nH]c(=O)c(C(=O)O)c1O [Cpd 87, 6-[6-(dimethylamino)pyridin-3-yl]-5-ethyl-4-hydroxy-2-oxo-1,2-dihydropyridine-3-carboxylic acid]	< 1 µg/mL	12.5 to 150 µg/mL (≈ 41.2 to 495 µM)	12.5 to 150 µg/mL (≈ 41.2 to 495 µM)	1 to 3.5 µg/mL (≈ 3.3 to 11.5 µM)	1 to 3.5 µg/mL (≈ 3.3 to 11.5 µM)	1 to 3.5 µg/mL (≈ 3.3 to 11.5 µM)	3.5 to 12.5 µg/mL (≈ 11.5 to 41.2 µM)	12.5 to 150 µg/mL (≈ 41.2 to 495 µM)	< 1 µg/mL	12.5 to 150 µg/mL (≈ 41.2 to 495 µM)	12.5 to 150 µg/mL (≈ 41.2 to 495 µM)	1 to 3.5 µg/mL (≈ 3.3 to 11.5 µM)	1 to 3.5 µg/mL (≈ 3.3 to 11.5 µM)	< 1 µg/mL
CCc1cc(C(=O)O)c(=O)[nH]c1-c1ccc(N(C)C)cc1 [Cpd 88, 6-[4-(dimethylamino)phenyl]-5-ethyl-2-oxo-1,2-dihydropyridine-3-carboxylic acid]	< 1 µg/mL	< 1 µg/mL	3.5 to 12.5 µg/mL (≈ 12.2 to 43.7 µM)	12.5 to 150 µg/mL (≈ 43.7 to 524 µM)	12.5 to 150 µg/mL (≈ 43.7 to 524 µM)	12.5 to 150 µg/mL (≈ 43.7 to 524 µM)	< 1 µg/mL	< 1 µg/mL	12.5 to 150 µg/mL (≈ 43.7 to 524 µM)	12.5 to 150 µg/mL (≈ 43.7 to 524 µM)	3.5 to 12.5 µg/mL (≈ 12.2 to 43.7 µM)	3.5 to 12.5 µg/mL (≈ 12.2 to 43.7 µM)	< 1 µg/mL	< 1 µg/mL
CCc1c(-c2ccc(N(C)C)cc2)[nH]c(=O)c(C(=O)O)c1O [Cpd 90, 6-[4-(dimethylamino)phenyl]-5-ethyl-4-hydroxy-2-oxo-1,2-dihydropyridine-3-carboxylic acid]	< 1 µg/mL	1 to 3.5 µg/mL (≈ 3.31 to 11.6 µM)	3.5 to 12.5 µg/mL (≈ 11.6 to 41.3 µM)	12.5 to 150 µg/mL (≈ 41.3 to 496 µM)	12.5 to 150 µg/mL (≈ 41.3 to 496 µM)	12.5 to 150 µg/mL (≈ 41.3 to 496 µM)	1 to 3.5 µg/mL (≈ 3.31 to 11.6 µM)	3.5 to 12.5 µg/mL (≈ 11.6 to 41.3 µM)	3.5 to 12.5 µg/mL (≈ 11.6 to 41.3 µM)	12.5 to 150 µg/mL (≈ 41.3 to 496 µM)	12.5 to 150 µg/mL (≈ 41.3 to 496 µM)		< 1 µg/mL	< 1 µg/mL
CCc1cc(C(=O)O)c(=O)[nH]c1-c1ccc(N2C[C@@H]3[C@@H](N)[C@@H]3C2)cc1 [Cpd 177, 6-{4-[(1R,5S,6s)-6-amino-3-azabicyclo[3.1.0]hex-3-yl]phenyl}-5-ethyl-2-oxo-1,2-dihydropyridine-3-carboxylic acid]	< 1 µg/mL	< 1 µg/mL	12.5 to 150 µg/mL (≈ 36.8 to 442 µM)	12.5 to 150 µg/mL (≈ 36.8 to 442 µM)	12.5 to 150 µg/mL (≈ 36.8 to 442 µM)	12.5 to 150 µg/mL (≈ 36.8 to 442 µM)	1 to 3.5 µg/mL (≈ 2.95 to 10.3 µM)	< 1 µg/mL	12.5 to 150 µg/mL (≈ 36.8 to 442 µM)	12.5 to 150 µg/mL (≈ 36.8 to 442 µM)	1 to 3.5 µg/mL (≈ 2.95 to 10.3 µM)		< 1 µg/mL	< 1 µg/mL
